In patent US3989835A, “Method of using 6-substituted amino phenyl-2,3,5,6-tetra-hydro[2,1-b]thiazoles for controlling gastrointestinal nematodes” (American Cyanamid Company, priority 1974, dated 1976):
Structures can show the parent of a compound that is named as a salt. Where two headings read alike, the source gives them in different places.

Legend:
[1] = in vivo; settings: for LD50: mouse, in vivo, po; for Approx. LD50 /ED50: chemotherapeutic index, mouse oral, N. dubius; for Dead/Total: mice
Source text: Data on the acute oral toxicity to mice of various single oral doses of the above compounds and several analogs were obtained by conventional procedures, (Table IX hereinafter).

[2] = test system: Nematospiroides dubius; experiment: Anthelmintic efficacy against N. dubius in mice, single oral dose; type: in vivo, Nematospiroides dubius (in albino female mice); settings: Heligmosomoides polygyrus, po; for inhibition in vivo at 40 mg/kg: single oral dose 40 mg./Kg.; for inhibition in vivo at 60 mg/kg: single oral dose 60 mg./Kg.; for inhibition in vivo at 10 mg/kg: single oral dose 10 mg./Kg.; for inhibition in vivo at 2 mg/kg: single oral dose 2.0 mg./Kg.; for inhibition in vivo at 5 mg/kg: single oral dose 5.0 mg./Kg.; for inhibition in vivo at 1.25 mg/kg: single oral dose 1.25 mg./Kg.; for inhibition in vivo at 20 mg/kg: single oral dose 20 mg./Kg.
Description: Albino female mice are each inoculated with about 20 infectious larvae of Nematospiroides dubius. This nematode is a representative of the economical important trichostrongylis worms of ruminants and other hosts, and of nematodes in general. Twenty-two days after inoculation, groups of four randomly selected mice containing adult N. dubius are given single oral doses of test compounds dissolved or suspended in 0.4 ml. of water per 20 gram mouse. At 26 or 27 days after inoculation, treated mice and in each test four randomly selected groups of untreated mice are necropsied. The number of worms in the small intestine of each mouse are determined by microscopic examination. Average worm numbers for each treated group and for the untreated controls are computed and the percent efficacy determined by the customary formula:
(Average Worms in Control - Average Worms in Treated)/(Average Worms in Control) X 100.

[3] = LD50, mice, adjusted to molar equivalents of tetramisole free base
[4] = molar-adjusted, read-out: Percent Nematospiroides Activity
[5] = Approx. LD50, mouse oral, Table IX
[6] = continuation of Table X (R1/R4 disubstituted), read-out: ED50
[7] = mouse oral, Table IX, read-out: Approx. ED50 vs. N. dubius
[8] = as Base, single oral dose, mice, > indicates inactive at dose shown, read-out: Approx. ED50

SMILES: CC(C)N(C)c1cccc(C2CN3CCSC3=N2)c1 (racemic) [CH3 N--CH(CH3)2, 6-[m-(isopropylmethylamino)phenyl]-2,3,5,6-tetrahydroimidazo[2,1-b]thiazol]
- LD50 [1, 3]: 40 to 60 mg/kg
- inhibition in vivo at 40 mg/kg [2, 4]: 78%
- inhibition in vivo at 60 mg/kg [2, 4]: 88%

SMILES: CC(=O)Nc1ccc(Br)c(C2CN3CCSC3=N2)c1 (racemic) [R1 =COCH3 R4 =Br]
- LD50 [1, 5]: > 100 mg/kg
- ED50 [2, 6]: 30 mg/kg
- ED50 [2, 7]: 30 mg/kg

SMILES: Nc1ccc(Br)c(C2CN3CCSC3=N2)c1 (racemic) [R1 =H R4 =Br, dl-6-(5-amino-2-bromophenyl)-2,3,5,6-tetrahydroimidazo[2,1-b]thiazole, dihydrochloride]
- Approx. LD50 /ED50 ([1]; Table IX): 8
- LD50 [1, 5]: 40 mg/kg
- LD50 [1, 3]: ~50 mg/kg
- Dead/Total ([1]; single oral dose 20 Mg./Kg.): 0/6
- Dead/Total ([1]; single oral dose 40 Mg./Kg.): 2/6
- Dead/Total ([1]; single oral dose 80 Mg./Kg.): 6/6
- ED50 [2, 6]: 5 mg/kg
- ED50 [2, 7]: 5 mg/kg
- inhibition in vivo at 4 mg/kg ([2]; single oral dose 4.0 mg./Kg., molar-adjusted, read-out: Percent Nematospiroides Activity): 43%
- inhibition in vivo at 10 mg/kg [2, 4]: 100%

SMILES: Nc1ccccc1C1CN2CCSC2=N1 (racemic) [dl 2HCl NH2 ortho, reference compound]
- ED50 [2, 8]: > 100 mg/kg

SMILES: S=C=Nc1cccc(C2CN3CCSC3=N2)c1 (racemic) [dl Base N=C=S meta, reference compound]
- ED50 ([2]; read-out: Approx. ED50): 20 mg/kg

SMILES: COc1cccc(C2CN3CCSC3=N2)c1 (racemic) [dl HBr OCH3 meta, reference compound]
- ED50 [2, 8]: > 10 mg/kg

SMILES: Cc1cccc(C2CN3CCSC3=N2)c1 (racemic) [dl HCl CH3 meta, reference compound]
- ED50 [2, 8]: > 10 mg/kg

SMILES: O=[N+]([O-])c1cccc(C2CN3CCSC3=N2)c1 (racemic) [dl HCl NO2 meta, dl-6-(m-nitrophenyl)-2,3,5,6-tetrahydroimidazo[2,1-b]thiazole hydrochloride, reference compound]
- ED50 [2, 8]: 15 mg/kg

SMILES: O=[N+]([O-])c1ccccc1C1CN2CCSC2=N1 (racemic) [dl HCl NO2 ortho, reference compound]
- ED50 [2, 8]: > 100 mg/kg

SMILES: O=[N+]([O-])c1cccc(C2CN3C=CSC3=N2)c1 (racemic) [dl HClO4 NO2 * meta, reference compound]
- ED50 [2, 8]: 25 mg/kg

SMILES: Oc1cccc(C2CN3CCSC3=N2)c1 (racemic) [dl OH meta, reference compound]
- ED50 [2, 8]: > 10 mg/kg

SMILES: CCC(=O)Nc1cccc(C2CN3CCSC3=N2)c1 (racemic) [m-NH--CO--C2 H5 dl]
- Approx. LD50 /ED50 ([1]; Table IX): 20
- LD50 [1, 5]: < 40 mg/kg
- LD50 [1, 3]: 30 to 40 mg/kg
- Dead/Total ([1]; single oral dose 40 Mg./Kg.): 4/5
- Dead/Total ([1]; single oral dose 60 Mg./Kg.): 4/6
- Dead/Total ([1]; single oral dose 80 Mg./Kg.): 5/5
- Dead/Total ([1]; single oral dose 100 Mg./Kg.): 6/6
- ED50 [2, 8]: 2 mg/kg
- ED50 [2, 7]: 2 mg/kg
- inhibition in vivo at 2 mg/kg [2, 4]: 76%
- inhibition in vivo at 5 mg/kg [2, 4]: 100%
- inhibition in vivo at 10 mg/kg [2, 4]: 100%

SMILES: CCCC(=O)Nc1cccc(C2CN3CCSC3=N2)c1 (racemic) [m-NH--CO--C3 H7n dl]
- Approx. LD50 /ED50 ([1]; Table IX): 20
- LD50 [1, 5]: 40 mg/kg
- LD50 [1, 3]: 30 to 40 mg/kg
- Dead/Total ([1]; single oral dose 40 Mg./Kg.): 3/5
- Dead/Total ([1]; single oral dose 60 Mg./Kg.): 4/5
- Dead/Total ([1]; single oral dose 80 Mg./Kg.): 4/5
- Dead/Total ([1]; single oral dose 100 Mg./Kg.): 5/5
- ED50 [2, 8]: 2 mg/kg
- ED50 [2, 7]: 2 mg/kg
- inhibition in vivo at 1.25 mg/kg [2, 4]: 43%
- inhibition in vivo at 2 mg/kg [2, 4]: 58%
- inhibition in vivo at 5 mg/kg [2, 4]: 99%
- inhibition in vivo at 10 mg/kg [2, 4]: 100%

SMILES: CC(C)(C)C(=O)Nc1cccc(C2CN3CCSC3=N2)c1 (racemic) [m-NH--CO--C(CH3)3 dl]
- Approx. LD50 /ED50 ([1]; Table IX): 33
- LD50 [1, 5]: 100 mg/kg
- LD50 [1, 3]: ~100 mg/kg
- Dead/Total ([1]; single oral dose 50 Mg./Kg.): 0/6
- Dead/Total ([1]; single oral dose 100 Mg./Kg.): 2/6
- Dead/Total ([1]; single oral dose 200 Mg./Kg.): 5/6
- ED50 [2, 8]: 3 mg/kg
- ED50 [2, 7]: 3 mg/kg
- inhibition in vivo at 5 mg/kg [2, 4]: 75%
- inhibition in vivo at 10 mg/kg [2, 4]: 88%
- inhibition in vivo at 20 mg/kg [2, 4]: 100%

SMILES: O=C(Nc1cccc(C2CN3CCSC3=N2)c1)c1ccccc1 (racemic) [m-NH-CO dl]
- Approx. LD50 /ED50 ([1]; Table IX): 60
- LD50 [1, 5]: 60 mg/kg
- LD50 [1, 3]: ~60 mg/kg
- Dead/Total ([1]; single oral dose 40 Mg./Kg.): 0/6
- Dead/Total ([1]; single oral dose 60 Mg./Kg.): 3/6
- Dead/Total ([1]; single oral dose 80 Mg./Kg.): 4/6
- Dead/Total ([1]; single oral dose 120 Mg./Kg.): 5/6
- ED50 [2, 8]: 1 mg/kg
- ED50 [2, 7]: 1 mg/kg
- inhibition in vivo at 1.25 mg/kg [2, 4]: 67%
- inhibition in vivo at 2 mg/kg [2, 4]: 94%
- inhibition in vivo at 5 mg/kg [2, 4]: 100%
- inhibition in vivo at 10 mg/kg [2, 4]: 100%
- inhibition in vivo at 20 mg/kg [2, 4]: 100%

SMILES: CC(C)(C)C(=O)Nc1cccc(C2CN3C=CSC3=N2)c1 (stereo not shown) [5,6-dihydro HN-CO-C(CH3)3, 3'-(5,6-dihydroimidazo[2,1-b]thiazol-6-yl)pivalanilide]
- ED50 [2, 8]: 7.5 mg/kg
- inhibition in vivo at 5 mg/kg [2, 4]: 35%
- inhibition in vivo at 10 mg/kg [2, 4]: 80%

SMILES: CC(C)C(=O)Nc1cccc(C2CN3C=CSC3=N2)c1 (stereo not shown) [5,6-dihydro HN-CO-CH(CH3)2, 3'(5,6-dihydroimidazo[2,1-b]thiazol-6-yl)isobutyranilide]
- ED50 [2, 8]: 7.5 mg/kg
- inhibition in vivo at 5 mg/kg [2, 4]: 32%
- inhibition in vivo at 10 mg/kg [2, 4]: 68%

SMILES: CC(C)N(C=O)c1cccc(C2CN3CCSC3=N2)c1 (stereo not shown) [(CH3)2 CH--N--CHO, N-isopropyl-3'-(2,3,5,6-tetrahydroimidazo[2,1-b]thiazol-6-yl) formanilide dihydrochloride]
- inhibition in vivo at 40 mg/kg [2, 4]: 99%
- inhibition in vivo at 60 mg/kg [2, 4]: 100%
